Patent US4307072A, “N-Triiodobenzoylaminoacyl polyhydroxic amines” (Mallinckrodt, Inc., priority 1977, dated 1981)
Values after ≈ are worked out from the molar mass of the structure shown.

Assays:
[1] = Solubility in water
[2] = tested on: Swiss albino mice; assay: Intracerebral toxicity study in mice (48 hours LD50); format: in vivo; details: 0.05 ml. (0.1 ml. maximum), concentration I W/V: Example 1 26.3, Example 2 11.25, Example 3 28.2, Example 5 28.2
Method: (§1) Intravenous, intracerebral and intracisternal acute toxicities of the compounds of Examples 1-5 were determined according to the following procedures.
Intracerebral toxicity study in mice
Swiss albino mice of either sex, weighing 18 to 23 grams were used for this test according to the method of Haley (Brit. J. Pharmcol. 12, 12-15 1957). At each dose level, the contrast medium was injected as follows. The mouse was grasped firmly by the loose skin behind the head. After the skin was pulled taut, a 3/8 inch 27 gauge needle attached to a 0.25 ml. syringe was inserted perpendicularly through the skull into the brain at a point 2 mm. from either side of the mid line on a line drawn through the anterior base on the ears. A dose of 0.05 ml. (0.1 ml. maximum) of various concentrations of the contrast medium was injected.
Mortalities were recorded during the first four hours, then daily for two days. Surviving animals were sacrificed 48 hours after injection and the LD50 value was calculated according to the method of Litchfield and Wilcoxon (J. Pharmacol. Exp. Ther. 96, 99-113, 1949).

[3] = tested on: Swiss albino mice; assay: Intravenous toxicity study in mice (seven-day LD50); format: in vivo; details: lateral tail vein, 1 ml./min., concentration I W/V: Example 1 26.3, Example 2 11.25, Example 3 28.2, Example 5 28.0
Method: as §1
Intravenous toxicity study in mice
Swiss albino mice with weights ranging from 18 to 25 grams were used for the performance of the test. Three to four groups of mice with sexes equally represented in each group received single measured doses (mg. of contrast media/kg of body weight) injected into a lateral tail vein at a rate of 1 ml./min.
Mortalities were recorded during the first four hours then daily for seven days. After seven days, surviving animals were sacrificed and necropsies performed.
Calculation of the seven-day LD50 value was carried out according to the method of Litchfield and Wilcoxon (J. Pharmacol. Exp. Ther. 96, 99-113, 1949)

[4] = tested on: Sprague Dawley rats; assay: Intracisternal toxicity study in rats (LD50); format: in vivo; details: cisterna magna, single dose, seven days, concentration I W/V: Example 1 35.0, Example 2 11.25, Example 3 14.1, Example 5 35.0
Method: as §1
Intracisternal toxicity study in rats
The method of intracisternal administration of contrast media in rats was based on the procedure outlined by Melartin, et al. (Investigative Radiology, Jan. - Feb. 13, 12, 1970). Sprague Dawley rats were anesthetized with ether and positioned on a slanted stand. Following clipping of their hair on the nuchal and cervical area, a small midline incision was made in the skin in the occipital area to facilitate penetration of a 27 gauge needle into the cisterna magna. […] Single measured doses of the contrast medium were then injected.
Following injection, the animals were individually housed and observed for pharmacological and toxicological manifestations. Mortalities were recorded during the first four hours, then daily for seven days. Calculation of the LD50 value was carried out according to the method of Litchfield and Wilcoxon (J. Pharmacol. Exp. Ther. 96, 99-113, 1949)

[5] = physchem; details: water

Row | SMILES | solubility ([1]; water) [mg/mL] | Intracerebral LD50 [2] [mg. I/kg.] | Intravenous LD50 [3] | Intracisternal LD50 [4] [mg. I/kg.] | solubility [5] [mg/mL] | solubility [1] [mg/mL]
1 | CNC(=O)c1c(I)c(NC(C)=O)c(I)c(C(=O)NCC(=O)N[C@@H](CO)[C@@H](O)[C@H](O)[C@H](O)CO)c1I [Example 2, 2-Deoxy-2-(3-Acetamido-2,4,6-triiodo-5-N-methylcarbamyl-benzoylglycylamino)-D-glucitol] | ~50 (≈ 59.9 mM) | > 543 | > 7,500 mg. I/kg. | < 200 |  | 
2 | CC(=O)Nc1c(I)c(C(=O)NCC(=O)N(C)C[C@H](O)[C@@H](O)[C@H](O)[C@H](O)CO)c(I)c(N(C)C(C)=O)c1I [Example 5, N-(3-Acetamido-2,4,6-triiodo-5-N-methylacetamidobenzoylglycyl)-1-(methylamino)-1-deoxy-D-glucitol] | ~1000 (≈ 1160 mM) | ~1100 | ~8,000 mg. I/kg. | 400 |  | 
3 | CC(=O)Nc1c(I)c(C(=O)NCC(=O)N(C)CC(O)CO)c(I)c(C(=O)NCC(=O)N(C)CC(O)CO)c1I (centres unmarked) [Example 3, (5-Acetamido-2,4,6-triiodoisophthaloyl)-N,N'-bis-2,3-dihydroxypropyl-N,N'-dimethyl-bis glycinamide] |  | ~1425 | > 15,000 mg. I/kg. | 100 | ~1000 (≈ 1120 mM) | 
4 | CC(=O)Nc1c(I)c(C(=O)NCC(=O)N[C@@H](CO)[C@@H](O)[C@H](O)[C@H](O)CO)c(I)c(N(C)C(C)=O)c1I [Example 1, 2-(3-Acetamido-2,4,6-triiodo-5-N-methylacetamidobenzoylglycylamino)-2-deoxy-D-glucitol] | ~1000 (≈ 1180 mM) | ~1550 | ~10,000 mg. I/kg. | ~525 |  | 1000 (≈ 1180 mM)
